Values of other authors as cited in paper PMC3974845 (International journal of peptide research and therapeutics, 2013).
Where two headings read alike, the source gives them in different places. One block for each substance: values may come before it. [ ]: non-standard residue; d: D form. pY = N[C@@H](Cc1ccc(OP(=O)(O)O)cc1)C(=O)O

Molecular target: full length Stat3 (SH2 domain) (Homo sapiens, UniProt P40763)
[1] = affinity for Stat3, Table 1, ref Mandal et al. 2009b
[2] = affinity for Stat3, Table 1, ref Mandal et al. 2011
[3] = affinity for Stat3, Table 1, ref Coleman et al. 2005

full length Stat3 (SH2 domain), sequence (P40763 whole entry, species assumed, the tested form may be a part): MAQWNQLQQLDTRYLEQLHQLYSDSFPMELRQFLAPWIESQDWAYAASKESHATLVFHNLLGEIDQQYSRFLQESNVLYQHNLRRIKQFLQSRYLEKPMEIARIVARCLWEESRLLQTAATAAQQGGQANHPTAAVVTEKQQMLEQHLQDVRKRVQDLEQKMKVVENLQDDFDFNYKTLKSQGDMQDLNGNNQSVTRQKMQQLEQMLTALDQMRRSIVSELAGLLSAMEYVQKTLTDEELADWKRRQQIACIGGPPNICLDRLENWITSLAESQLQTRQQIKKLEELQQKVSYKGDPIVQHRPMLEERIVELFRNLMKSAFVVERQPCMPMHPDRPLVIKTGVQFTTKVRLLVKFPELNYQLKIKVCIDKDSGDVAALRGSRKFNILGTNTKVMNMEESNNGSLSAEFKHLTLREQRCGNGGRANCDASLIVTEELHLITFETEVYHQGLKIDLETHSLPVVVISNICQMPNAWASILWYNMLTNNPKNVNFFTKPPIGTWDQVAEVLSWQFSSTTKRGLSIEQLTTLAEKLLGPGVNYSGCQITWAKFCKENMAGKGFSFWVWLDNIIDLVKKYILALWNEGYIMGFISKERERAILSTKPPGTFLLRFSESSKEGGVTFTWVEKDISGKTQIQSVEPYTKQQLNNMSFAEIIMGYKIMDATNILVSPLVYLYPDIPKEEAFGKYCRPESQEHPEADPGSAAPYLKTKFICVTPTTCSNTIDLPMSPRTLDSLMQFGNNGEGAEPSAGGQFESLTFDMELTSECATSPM

IC50 [1]: 138 ± 8 nM
Substance: pCinn-Leu-Pro-Gln-NHBn [Compound 13]

IC50 [2]: 70 ± 15 nM
Substance: βMpCinn-Leu-Pro-Gln- NHBn [Compound 15]

Substance: βMpCinn-Leu-mPro-Apa [Compound 18]
IC50 [2]: 88 ± 11 nM
IC50 (βMpCinn-Leu-Xaa-Apa series, fluorescence polarization, ref Mandal et al. 2011): 88 ± 11 nM

Substance: Ac-pTyr-Leu-mPro-Gln-Val- NH2 [Compound 12]
IC50 [3]: 265 ± 14 nM

Substance: Ac-pTyr-Leu-Pro-Gln-Val- NH2 (Ac-[pY]LPQV-NH2; SMILES CC(=O)N[C@@H](Cc1ccc(OP(=O)(O)O)cc1)C(=O)N[C@@H](CC(C)C)C(=O)N1CCC[C@H]1C(=O)N[C@@H](CCC(N)=O)C(=O)N[C@H](C(N)=O)C(C)C) [Compound 11]
IC50 [3]: 739 ± 31 nM

Substance: pCinn-Leu-mPro-Gln-NHBn [Compound 14]
IC50 [1]: 68 ± 8 nM

Substance: βMpCinn-Leu-mPro-Gln- NHBn [Compound 16]
IC50 [2]: 46 ± 5 nM
